Measurements from patent US20260272851A1, “FORMULATION COMPRISING APOCYNIN AND PAEONOL” (AKL Research & Development Ltd, priority 2022, published 2026).
Where “and” joins values, the source holds several entries; their conditions need not be identical. Identical values can stand only once.

Tests used:
Type in all cases: cell-based
CDKN1A (p21) = CDKN1A (p21) relative mRNA expression by RT-PCR; settings: primary human chondrocytes
Excerpt: CDKN1 (p21) is a genetic marker for cell senescence that codes for cyclin dependent kinase inhibitor 1A, a regulator of cell cycle progression. The expression of this gene is tightly controlled by the tumor suppressor protein p53. Activated p53 increases the expression of p21 which contributes to senescence. […] Cell-cycle arrest due to an increase in expression of genes that inhibit proliferation, the changes that occur in senescent cells can also result in the increased production of cytokines, growth factors, and matrix metalloproteinase (Loeser R F. Aging and osteoarthritis: the role of chondrocyte senescence and aging changes in the cartilage matrix. Osteoarthritis Cartilage. 2009 August; 17 (8): 971-9). Relative mRNA expression levels of CDKN1 were detected by quantitative real-time (RT)-PCR in presence of positive stimuli +/−10 μg/ml APPA. Data were obtained from eight independent donors. Values are presented as mean±SEM and analyzed by Mann Whitney test (*p≤0.05). RNA extraction was achieved using TRIzol® (Sigma-Aldrich), following the manufacturer's protocol. 0.5 μg of RNA was reversely transcribed into cDNA using Super Script VILO (Thermofisher Scientific, Waltham, Massachusetts, USA) following the manufacturer's instructions. RT-PCR was developed in a LightCycler 480-II Instrument (Roche, Mannheim, Germany) using TaqMan Universal Master Mix (Roche). Analysis of the results was carried out using Qbase+ version 2.5 software (Biogazelle, Ghent, Belgium). Gene expression was calculated relative to the housekeeping gene Glyceraldehyde-3-Phosphate Dehydrogenase (GAPDH). Relative mRNA expression levels of cyclin dependent kinase inhibitor 1A (CDKN1) were detected by quantitative real-time (RT)-PCR in the same manner as above. Data were obtained from six independent donors.

BECN-1 = BECN-1 gene expression by RT-PCR; settings: primary human chondrocytes; Eto + OSM + PA 7.7 μg/ml (FIG. 7d)
Experimental: RNA extraction was achieved using TRIzol® (Sigma-Aldrich), following the manufacturer's protocol. 0.5 μg of RNA was reversely transcribed into cDNA using Super Script VILO (Thermofisher Scientific, Waltham, Massachusetts, USA) following the manufacturer's instructions. RT-PCR was developed in a LightCycler 480-II Instrument (Roche, Mannheim, Germany) using TaqMan Universal Master Mix (Roche). Analysis of the results was carried out using Qbase+ version 2.5 software (Biogazelle, Ghent, Belgium). Gene expression was calculated relative to the housekeeping gene Glyceraldehyde-3-Phosphate Dehydrogenase (GAPDH). […] BECN-1 is a regulator of autophagy; the encoded protein, Beclin1, is a component of the phosphatidylinositol-3-kinase (PI3K) complex which mediates vesicle-trafficking processes. Autophagy is a self-degradative process that is important for balancing sources of energy at critical times during development and in response to cell stress. Although autophagy is not a type of cell death, it is important for cartilage homeostasis. […]

[1] = test system: human TC28a2 chondrocyte cells; test: DRAQ7 chondrocyte viability assay (flow cytometry); settings: 24 h
Experimental: A novel cell viability assay uses DRAQ7, a marker of apoptosis, necrosis and dead cells. DRAQ7 stains the nuclei in dead and permeabilised cells but not in intact live cells.
To determine the effects of APPA (10 μg/ml) AP (2.3 and 10 μg/ml) and PA (7.7 and 10 μg/ml) on chondrocyte viability, an assay based on DRAQ7™ (Thermo Fisher Scientific) was used. DRAQ7™ is a dye that can be used to show apoptosis, necrosis and dead cells, and the assay includes staining of nuclei in dead and permeabilised cells but not staining of intact live cells.
For the assay, cells were grown in flasks due to higher number of cells required. Following 24 h of different treatments, cells were trypsinised and centrifuged at 1500 rpm for 10 minutes (min). The harvested cells were suspended in 3 µM of the fluorescent dye DRAQ7™ (Thermo Fisher) and incubated in the dark, at room temperature (rt) for 10 min. The samples were run on CytoFLex flow cytometer (Beckman Coulter Inc. Ca, USA). At least 1×10^4 cells per assay were measured. Data were analysed using CyExpert V 2.5 software (Beckman Coulter Inc). […] To establish the position of DRAQ7− and DRAQ7+ gates, one of each negative and positive control was stained with DRAQ7 dye and the other with PBS alone (data not shown).

[2] = test system: primary human chondrocytes; test: SA-β-Gal levels by FDG flow cytometry in primary chondrocytes exposed to etoposide and OSM; settings: for SA-β-Gal level (Mean ± SEM): Eto-20 μM + OSM = 1; for effect on SA-β-Gal levels, in words: Eto + OSM, AP 2.3 and 10 μg/ml, PA 7.7 and 10 μg/ml individually (FIG. 7b)
Excerpt: Chondrocytes from human OA hip cartilage, were isolated as described in (Maneiro E, Martin M A, de Andres M C, López-Armada M J, Fernandez-Sueiro J L, del Hoyo P, et al. Mitochondrial respiratory activity is altered in osteoarthritic human articular chondrocytes. Arthritis and rheumatism. 2003; 48 (3): 700-8)) from 18 patients from total hip arthroplasty (5 male and 13 female patients with a mean±SD age of 86±7.17, 79.71±13.56 years respectively)
Human articular chondrocytes and T/C28a2 cell line, were equilibrated overnight in Dulbecco's Modified Eagle Medium (DMEM) (Gibco, Grand Island, NY, USA) supplemented with 10% fetal bovine serum (FBS), penicillin (100 U/ml) and streptomycin (100 μg/ml) (Gibco) in a humidified 5% CO2 atmosphere at 37° C.
(§1) Cells were plated at a density of 5×10^4 cells/well in Corning® CellBIND® multiwell 96 plates (MW 96) (Corning, NY, USA) or 1.8×10^5 cells/well in MW 12 plates (Corning, NY, USA) for analysis. Cells were left to equilibrate overnight in DMEM at 5% or 2% of FBS in 5% CO2 at 37° C.
(§2) The effect of APPA on number of senescent cells was therefore evaluated by the quantification of β-galactosidase activity using flow cytometry. β-galactosidase activity was detected using fluorescein di-β-D-galactopyranoside (FDG; Thermo Fisher, Waltham, MA, USA) by flow cytometry. Non-fluorescent FDG is sequentially hydrolysed by β-galactosidase, first to fluorescein monogalactoside and then to highly fluorescent fluorescein. Enzyme-mediated hydrolysis of FDG can be followed by the increase in fluorescence.
These conditions were evaluated with and without 10 μg/ml APPA for 24 h. Fluorescein di-β-D-galactopyranoside (10 µM) was then added to the pretreatment medium. At the end of incubation, cultures were washed with PBS, resuspended by trypsinization and analysed immediately using a FACScalibour flow cytometer (Becton Dickinson). Data were acquired and analysed with Cellquest software (Becton Dickinson). Each fluorescein signal was measured on an FL1 detector and β-galactosidase activity was estimated using the median fluorescence intensity (arbitrary units) of the cell population.

[3] = test system: human TC28a2 chondrocyte cells; test: SA-β-Gal activity by FDG flow cytometry in TC28a2 cells exposed to IL-6 or etoposide; settings: Basal = 1
Experimental: The immortalized human juvenile chondrocyte cell line T/C28a2 (25), was used in some experiments.
as §1, §2
These conditions were evaluated with and without 10 μg/ml APPA for 24 h. […] At the end of incubation, cultures were washed with PBS, resuspended by trypsinization and analysed immediately using a FACScalibour flow cytometer (Becton Dickinson). Data were acquired and analysed with Cellquest software (Becton Dickinson). Each fluorescein signal was measured on an FL1 detector and β-galactosidase activity was estimated using the median fluorescence intensity (arbitrary units) of the cell population.

COc1ccc(C(C)=O)c(O)c1 [PA, 2-hydroxy-4-methoxyacetophenone]
expression level of CDKN1A (p21) (Mean ± SEM) (CDKN1A (p21); Eto 20 μM + OSM 10 ng/ml + 10 μg/ml (PA 10 μg/ml per text)): 0.869 ±0.17 and 0.8635 ± 0.17
BECN-1 gene expression (BECN-1): significantly counteracted
effect on cell viability (DRAQ7) ([1]; TC28a2, APPA 10, AP 2.3 and 10, PA 7.7 and 10 μg/ml): do not affect cell viability
SA-β-Gal level (Mean ± SEM) ([2]; Eto + OSM + PA-7.7 μg/ml): 0.9844
SA-β-Gal level (Mean ± SEM) ([2]; Eto + OSM + PA-10 μg/ml): 0.9622
effect on SA-β-Gal levels, in words [2]: no significant effects

COc1cc(C(C)=O)ccc1O [AP, 4-hydroxy-3-methoxyacetophenone]
expression level of CDKN1A (p21) (Mean ± SEM) (CDKN1A (p21); Eto 20 μM + OSM 10 ng/ml + AP 2.3 μg/ml): 1.0102 ± 0.25
expression level of CDKN1A (p21) (Mean ± SEM) (CDKN1A (p21); Eto 20 μM + OSM 10 ng/ml + AP 10 μg/ml): 1.617 ± 0.32
effect on CDKN1A (p21) expression, in words (CDKN1A (p21); Eto + OSM, AP at 2.3 and 10 μg/ml): neither concentration of AP nor PA 7.7 μg/ml had any significant effect
SA-β-Gal level (Mean ± SEM) ([3]; Eto-5 μM + AP 2.3 μg/ml): 0.9191
SA-β-Gal level (Mean ± SEM) ([3]; Eto-5 μM + AP 10 μg/ml): 0.8948
percentage of (non-viable) cells positive for DRAQ7 ([1]; human, 10 μg/ml): 5.05%
SA-β-Gal level (Mean ± SEM) ([2]; Eto + OSM + AP-2.3 μg/ml): 0.9947
SA-β-Gal level (Mean ± SEM) ([2]; Eto + OSM + AP-10 μg/ml): 1.01
effect on SA-β-Gal levels, in words [2]: no significant effects
